What was measured:
[1] = biological target: T1, Alpha-2A adrenergic receptor (Rattus norvegicus, UniProt P22909); assay: The compound was tested for binding affinity against alpha-2D adrenergic receptor, from rat clones.
T1 sequence (P22909 whole entry): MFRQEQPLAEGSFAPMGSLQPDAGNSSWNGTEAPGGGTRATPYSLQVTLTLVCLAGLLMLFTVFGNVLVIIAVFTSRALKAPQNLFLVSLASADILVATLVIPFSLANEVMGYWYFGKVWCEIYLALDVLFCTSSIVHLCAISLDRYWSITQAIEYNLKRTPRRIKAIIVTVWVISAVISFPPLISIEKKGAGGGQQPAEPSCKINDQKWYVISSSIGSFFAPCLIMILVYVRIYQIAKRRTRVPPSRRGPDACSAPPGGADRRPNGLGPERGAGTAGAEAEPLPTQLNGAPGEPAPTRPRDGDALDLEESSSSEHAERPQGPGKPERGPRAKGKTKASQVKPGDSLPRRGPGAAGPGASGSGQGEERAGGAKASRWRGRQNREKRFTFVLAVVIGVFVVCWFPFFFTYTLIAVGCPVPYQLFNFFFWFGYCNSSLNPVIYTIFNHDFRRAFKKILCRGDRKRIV

[2] = biological target: T2, Alpha-2B adrenergic receptor (Homo sapiens, UniProt P18089); assay: Binding affinity against Alpha-2B adrenergic receptor from human clones.
T2 sequence (P18089 whole entry): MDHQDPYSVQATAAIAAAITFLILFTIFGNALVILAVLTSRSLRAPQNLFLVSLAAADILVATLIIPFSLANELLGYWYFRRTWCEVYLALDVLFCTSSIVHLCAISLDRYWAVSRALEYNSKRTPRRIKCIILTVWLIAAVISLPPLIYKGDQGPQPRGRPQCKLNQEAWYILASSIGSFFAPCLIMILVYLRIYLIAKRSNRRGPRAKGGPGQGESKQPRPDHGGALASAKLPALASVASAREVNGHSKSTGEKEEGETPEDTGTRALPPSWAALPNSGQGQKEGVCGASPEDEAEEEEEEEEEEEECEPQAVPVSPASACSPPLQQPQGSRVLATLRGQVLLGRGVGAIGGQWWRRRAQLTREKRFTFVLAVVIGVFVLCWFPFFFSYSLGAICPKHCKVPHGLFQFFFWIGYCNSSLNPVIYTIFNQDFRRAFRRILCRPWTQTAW

[3] = biological target: T3, Alpha-2A adrenergic receptor (Homo sapiens, UniProt P08913); assay: Binding affinity against Alpha-2A adrenergic receptor, from human clones.
T3 sequence (P08913 whole entry): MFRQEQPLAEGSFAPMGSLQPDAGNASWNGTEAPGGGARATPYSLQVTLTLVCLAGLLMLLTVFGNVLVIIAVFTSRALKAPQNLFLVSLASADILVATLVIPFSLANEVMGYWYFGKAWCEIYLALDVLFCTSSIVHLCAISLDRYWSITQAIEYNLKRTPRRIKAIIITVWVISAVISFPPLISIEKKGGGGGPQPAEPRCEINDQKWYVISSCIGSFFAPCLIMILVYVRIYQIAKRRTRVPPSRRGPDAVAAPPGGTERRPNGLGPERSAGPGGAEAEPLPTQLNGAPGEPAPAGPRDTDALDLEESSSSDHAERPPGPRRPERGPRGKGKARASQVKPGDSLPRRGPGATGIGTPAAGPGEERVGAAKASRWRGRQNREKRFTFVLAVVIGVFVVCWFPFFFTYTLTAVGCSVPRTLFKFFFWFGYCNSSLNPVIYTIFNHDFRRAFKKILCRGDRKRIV

[4] = biological target: T4, Alpha-2C adrenergic receptor (Homo sapiens, UniProt P18825); assay: Binding affinity against Alpha-2C adrenergic receptor from human clones.
T4 sequence (P18825 whole entry): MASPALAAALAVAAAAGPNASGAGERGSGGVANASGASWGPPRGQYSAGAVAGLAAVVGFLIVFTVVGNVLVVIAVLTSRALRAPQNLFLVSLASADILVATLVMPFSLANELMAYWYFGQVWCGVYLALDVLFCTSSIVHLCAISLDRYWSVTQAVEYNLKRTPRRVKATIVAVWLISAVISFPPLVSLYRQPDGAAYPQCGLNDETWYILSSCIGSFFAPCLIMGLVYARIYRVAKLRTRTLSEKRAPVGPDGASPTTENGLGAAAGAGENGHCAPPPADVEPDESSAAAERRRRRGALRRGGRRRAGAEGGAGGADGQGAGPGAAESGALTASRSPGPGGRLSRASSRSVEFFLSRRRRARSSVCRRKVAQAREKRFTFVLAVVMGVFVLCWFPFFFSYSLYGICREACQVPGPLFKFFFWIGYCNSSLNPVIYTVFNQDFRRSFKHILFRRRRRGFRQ

[5] = biological target: T5, Alpha-1A adrenergic receptor (Bos taurus, UniProt P18130); assay: Binding affinity against Alpha-1A adrenergic receptor from bovine clone
T5 sequence (P18130 whole entry): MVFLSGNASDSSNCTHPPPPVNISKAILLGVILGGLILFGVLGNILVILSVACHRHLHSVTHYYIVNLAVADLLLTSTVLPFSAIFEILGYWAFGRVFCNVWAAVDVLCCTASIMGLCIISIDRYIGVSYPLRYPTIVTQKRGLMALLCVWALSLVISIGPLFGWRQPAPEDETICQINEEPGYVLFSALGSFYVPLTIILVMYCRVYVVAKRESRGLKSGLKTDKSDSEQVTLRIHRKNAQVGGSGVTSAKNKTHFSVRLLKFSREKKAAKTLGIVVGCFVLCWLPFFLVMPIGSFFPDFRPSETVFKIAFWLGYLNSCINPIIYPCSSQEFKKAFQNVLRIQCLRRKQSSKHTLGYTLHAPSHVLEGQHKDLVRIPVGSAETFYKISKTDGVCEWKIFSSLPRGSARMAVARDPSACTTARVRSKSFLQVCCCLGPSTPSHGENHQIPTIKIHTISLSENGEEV

[6] = biological target: T6, Alpha-1D adrenergic receptor (Rattus norvegicus, UniProt P23944); assay: Binding affinity against Alpha-1D adrenergic receptor, from rat clones.
T6 sequence (P23944 whole entry): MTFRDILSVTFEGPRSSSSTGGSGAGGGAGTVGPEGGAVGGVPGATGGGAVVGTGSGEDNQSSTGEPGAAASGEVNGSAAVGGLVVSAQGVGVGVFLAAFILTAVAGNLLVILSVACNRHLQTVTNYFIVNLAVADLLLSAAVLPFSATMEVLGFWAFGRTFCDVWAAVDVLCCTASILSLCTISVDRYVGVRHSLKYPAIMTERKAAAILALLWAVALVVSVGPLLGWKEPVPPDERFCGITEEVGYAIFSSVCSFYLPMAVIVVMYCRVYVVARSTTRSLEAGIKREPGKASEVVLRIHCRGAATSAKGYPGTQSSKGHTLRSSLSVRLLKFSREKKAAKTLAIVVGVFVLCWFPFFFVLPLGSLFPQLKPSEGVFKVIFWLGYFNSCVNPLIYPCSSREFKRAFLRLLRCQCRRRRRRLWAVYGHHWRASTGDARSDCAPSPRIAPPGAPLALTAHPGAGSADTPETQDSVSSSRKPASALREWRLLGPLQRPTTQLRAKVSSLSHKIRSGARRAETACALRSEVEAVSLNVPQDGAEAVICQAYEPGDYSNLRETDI

[7] = biological target: T7, Alpha-1B adrenergic receptor (Homo sapiens, UniProt P35368); assay: Binding affinity against Alpha-1B adrenergic receptor from human clone
T7 sequence (P35368 whole entry): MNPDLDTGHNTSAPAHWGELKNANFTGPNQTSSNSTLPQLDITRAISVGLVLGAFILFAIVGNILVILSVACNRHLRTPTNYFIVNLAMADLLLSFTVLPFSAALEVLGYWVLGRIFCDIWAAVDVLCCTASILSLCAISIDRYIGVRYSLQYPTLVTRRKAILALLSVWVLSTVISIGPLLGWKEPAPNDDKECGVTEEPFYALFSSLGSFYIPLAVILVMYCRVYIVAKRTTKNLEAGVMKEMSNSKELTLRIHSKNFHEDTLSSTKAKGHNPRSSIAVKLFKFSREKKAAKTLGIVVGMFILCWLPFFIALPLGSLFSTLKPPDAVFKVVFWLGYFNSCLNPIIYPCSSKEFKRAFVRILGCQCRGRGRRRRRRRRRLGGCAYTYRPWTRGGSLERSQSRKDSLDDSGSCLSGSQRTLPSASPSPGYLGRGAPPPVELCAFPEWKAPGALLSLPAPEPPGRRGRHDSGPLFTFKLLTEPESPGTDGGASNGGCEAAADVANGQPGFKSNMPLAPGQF

[8] = biological target: T8, Alpha-1D adrenergic receptor (Homo sapiens, UniProt P25100); assay: Binding affinity against Alpha-1D adrenergic receptor, from human clones.
T8 sequence (P25100 whole entry): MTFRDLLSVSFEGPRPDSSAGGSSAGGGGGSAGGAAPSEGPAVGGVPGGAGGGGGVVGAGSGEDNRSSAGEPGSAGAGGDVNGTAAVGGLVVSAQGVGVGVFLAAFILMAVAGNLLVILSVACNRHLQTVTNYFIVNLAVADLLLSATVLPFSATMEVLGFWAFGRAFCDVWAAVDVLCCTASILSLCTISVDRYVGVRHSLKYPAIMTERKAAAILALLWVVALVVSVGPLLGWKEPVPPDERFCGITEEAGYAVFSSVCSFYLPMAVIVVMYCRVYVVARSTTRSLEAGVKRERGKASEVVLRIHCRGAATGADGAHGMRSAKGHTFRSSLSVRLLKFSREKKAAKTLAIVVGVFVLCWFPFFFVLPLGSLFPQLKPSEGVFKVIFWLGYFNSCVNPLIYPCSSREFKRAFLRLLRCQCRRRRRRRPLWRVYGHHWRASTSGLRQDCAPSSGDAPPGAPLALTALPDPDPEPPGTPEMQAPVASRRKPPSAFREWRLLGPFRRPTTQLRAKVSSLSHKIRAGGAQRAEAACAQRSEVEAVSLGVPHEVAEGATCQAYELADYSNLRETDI

[9] = biological target: T9, Alpha-2A adrenergic receptor (Bos taurus, UniProt Q28838); assay: Compound was evaluated for inhibition of binding of [3H]MK-91 to Alpha-2 adrenergic receptor in bovine pineal
T9 sequence (Q28838 whole entry): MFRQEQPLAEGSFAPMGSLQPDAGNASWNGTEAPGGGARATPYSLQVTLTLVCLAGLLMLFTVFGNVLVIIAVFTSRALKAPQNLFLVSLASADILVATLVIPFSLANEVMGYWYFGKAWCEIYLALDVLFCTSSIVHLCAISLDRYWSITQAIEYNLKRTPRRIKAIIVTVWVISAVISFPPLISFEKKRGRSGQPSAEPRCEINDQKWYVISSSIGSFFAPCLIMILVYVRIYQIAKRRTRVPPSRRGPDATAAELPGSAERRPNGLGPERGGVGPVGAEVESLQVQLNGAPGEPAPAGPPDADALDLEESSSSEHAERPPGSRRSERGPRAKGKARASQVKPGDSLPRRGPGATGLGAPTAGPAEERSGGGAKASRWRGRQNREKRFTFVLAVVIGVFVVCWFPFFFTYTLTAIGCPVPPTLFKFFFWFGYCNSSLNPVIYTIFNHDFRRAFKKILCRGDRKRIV

[10] = biological target: T10, Alpha-2A adrenergic receptor (Sus scrofa, UniProt P18871)
T10 sequence (P18871 whole entry): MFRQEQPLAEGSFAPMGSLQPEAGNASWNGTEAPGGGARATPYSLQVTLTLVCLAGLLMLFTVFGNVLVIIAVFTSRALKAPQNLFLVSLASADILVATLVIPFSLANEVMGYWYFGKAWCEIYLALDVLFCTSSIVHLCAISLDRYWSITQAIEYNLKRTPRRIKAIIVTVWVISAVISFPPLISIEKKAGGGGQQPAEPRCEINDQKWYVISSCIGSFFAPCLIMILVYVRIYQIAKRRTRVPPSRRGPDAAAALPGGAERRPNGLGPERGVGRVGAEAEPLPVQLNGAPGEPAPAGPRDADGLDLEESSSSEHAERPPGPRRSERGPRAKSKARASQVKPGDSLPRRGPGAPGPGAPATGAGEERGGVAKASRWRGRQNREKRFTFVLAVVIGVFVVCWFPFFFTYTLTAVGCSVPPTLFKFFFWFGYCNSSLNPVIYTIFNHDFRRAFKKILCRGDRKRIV

Row | Compound | Ki [3] | Ki [5] | Ki [6] | Ki [8] | also measured
1 | CC(C)=CCOc1ccc(Cl)c2c1CCN(C)CC2 | 114 nM |  |  |  | Ki [1]: 313 nM; Ki [2]: 142 nM; Ki [4]: 64 nM
2 | COc1cc2c(cc1OC)CN(c1cc(N)c3cc(OC)c(OC)cc3n1)CC2 [ABANOQUIL] |  | 0.03 nM | 0.03 nM |  | 
3 | COc1cc2nc(N(C)CCCNC(=O)C3CCCO3)nc(N)c2cc1OC (stereo unspecified) [ALFUZOSIN] |  |  | 3.5 nM | 3.6 nM | Ki [7]: 2.8 nM
4 | COc1cc2nc(N3CCN(C(=O)c4ccco4)CC3)nc(N)c2cc1OC [PRAZOSIN] |  |  |  |  | Ki [9]: 106 nM; Ki [10]: 4100 nM
5 | COC(=O)[C@H]1[C@H]2C[C@H]3c4[nH]c5ccccc5c4CCN3C[C@H]2CC[C@@H]1O [RAUWOLSCINE] |  |  | 35 nM |  | 
6 | COc1cc2nc(N3CCN(C(=O)C4CCCO4)CC3)nc(N)c2cc1OC (stereo unspecified) [TERAZOSIN] | 3700 nM | 26 nM | 35 nM | 3.5 nM | 
